In patent publication US20100216886A1, “POLYMORPHS OF N2-(1,1'-BIPHENYL-4-YLCARBONYL)-N1-[2-(4-FLUOROPHENYL)-1,1-DIMETHYLETHYL]-L-ALPHA-GLUTAMINE” (Wyeth, priority 2006, published 2010):
In brackets after ≈: the same amount, converted by molar mass.

Legend:
[1] = Forced degradation study (solution stability); assay type: physicochemical; conditions: 387 μg/mL with 25% acetonitrile in acid, base, peroxide and water under heat and light stress
Protocol: A forced degradation study was performed to generate potential degradation products and assess stability liabilities.

[2] = physchem
Protocol: The pH solubility profile was generated first with Sample D containing polymorph Form A, and then with Sample F containing polymorph Form B, in HCl/NaOH solutions. After 24 hour equilibration, suspensions were centrifuged and the supernatants assayed by HPLC.
The solubility data was analyzed as a function of pH using the Henderson-Hasselbach equation:
Solubility=S0·[10^(PH-pKa)+1],
where S0 is the intrinsic solubility of the free acid.

[3] = Second CACO-2 study, propranolol as reference; assay type: in vitro ADME; conditions: human, Caco-2
From the text: (§1) The second CACO-2 study gave somewhat different results (Table 12). Because metoprolol interferes with the LC/MS assay, propranolol, which has a permeability that is […] metoprolol, was used as the FDA calibration compound. The apical pH was controlled at 6 and basolateral pH at pH 7. In addition, verapamil was used as a competitive inhibitor of the Pgp (P-glycoprotein) transporter. The ratios to propranolol were 1.00 and 0.77 with and without verapamil. […] The B→A/A→B ratios were low at 0.3 and 0.3, with and without verapamil, respectively, indicating again no efflux […].

[4] = test system: CACO-2; experiment: Second CACO-2 study, propranolol as reference; assay type: in vitro ADME; conditions: for Ratio to Propranolol: A → B
From the text: as §1

[5] = In situ rat perfusion model, metoprolol as reference; assay type: in vivo; conditions: rat
From the text: The permeability was 18.2 nm/sec, which is higher than the 14.5 nm/sec value obtained for metoprolol (Table 13).

[6] = Solubility in water and toxicology vehicle (animal formulation); assay type: physicochemical
Protocol: (§2) Solubility is enhanced slightly in the 2% Tween/0.5% methylcellulose toxicology vehicle, ranging from […]. 2% Tween may also increase GI membrane permeability.

[7] = Oral bioavailability in rat; conditions: in vivo, read-out: Oral bioavailability (F %)
Protocol: as §2
(§3) A prolonged absorption phase was observed together with decreasing bioavailability with increasing dose in both animal species. […] However, the absorption at pharmacological doses seemed reasonably complete albeit with delayed Tmax at lower GI when the drug is more soluble.

[8] = Oral bioavailability in dog; conditions: in vivo, read-out: Oral bioavailability (F %)
Protocol: as §2, §3

[9] = Solubility in various solvents at 25° C. and 50° C.; assay type: physicochemical
[10] = Slurry in water at 50° C. (polymorphic transformation); assay type: physicochemical; conditions: slurry in water at 50° C. for 12-24 hr
Protocol: Powder XRD patterns comparing the starting material to polymorph pseudo Form A are shown in FIG. 34, and DSC thermograms of both batches at 50° C. are shown in FIG. 35.

[11] = First CACO-2 study, metoprolol as reference; conditions: human; for recovery: Caco-2, pH 7.4, % Recovery, pH 7.4
[12] = test system: CACO-2; experiment: First CACO-2 study, metoprolol as reference; conditions: for Ratio to Metoprolol: pH 7.4
[13] = Dynamic Vapor Sorption (DVS) analysis; assay type: physicochemical; conditions: room temperature, 6-hour equilibration period
From the text: Sample F was subject to Dynamic Vapor Sorption (DVS) analysis at room temperature. The sample was first analyzed by Karl Fischer (KF) titration containing initial moisture content of 3.7% for the monohydrate form. RH cycling started at 50% relative humidity (RH) to 100% RH and down to 0% RH and then back up to 100% RH. A 3-hour/step equilibration period was found insufficient, so the run was repeated with a 6-hour period, which was still not sufficient.
(§4) As a result, an equilibrium moisture study using desiccators containing saturated salt solutions for humidity control was performed. Sample F was incubated at 0%, 15%, 31%, 66%, 87%, and 100% RH in room temperature for up to 20 days. Samples were periodically assayed by KF titration to give the kinetic profiles. XRD analysis was performed at the end of 20 days. The data is summarized in Table 8 with kinetic and equilibrium data plotted in FIGS. 18 and 19.

[14] = Equilibrium moisture study in desiccators with saturated salt solutions (KF, XRD); assay type: physicochemical; conditions: for Moisture (%) 1-day / Moisture (%) 3-day / Moisture (%) 7-day / Moisture (%) 20-day / XRD Polymorph / Moisture (%) 4-day: room temperature; for XRD Polymorph: end of 20 days
Protocol: as §4, with “Sample F was incubated at 0%, 15%, 31%, 66%, 87%, and 100% RH in room temperature for up to 20 days.” left out

[15] = Solid state stability; assay type: physicochemical
Protocol: Sample F containing polymorph Form B was further investigated at 40° C./75% RH using open and closed vials for 3 months. […] Therefore, the monohydrate needs to be stored in hermetically sealed containers in order to prevent conversion to the sesquihydrate.

[16] = Polymorphic conversion study in aqueous media (2% Tween 80, water); assay type: physicochemical
From the text: Polymorphic conversion of Form A to Form B was not observed with Sample D in 2% Tween 80 or water.
Polymorph pseudo Form A was obtained from a scaled up preparation of polymorph Form A (Sample E).
The polymorphic conversion appeared to be slower in water than in the 2% Tween suspension, probably due to the lower solubility in water.
DSC data also supported this observation (FIG. 11).

[17] = Solubility in water and 2% Tw80 of samples used in toxicological formulation assessments; assay type: physicochemical; conditions: 2% Tw80
From the text: Table 6 summarizes various solid-state properties of samples used in toxicological formulation assessments.

## CC(C)(Cc1ccc(F)cc1)NC(=O)[C@H](CCC(=O)O)NC(=O)c1ccc(-c2ccccc2)cc1 [Compound (I), N^2-(1,1′-biphenyl-4-ylcarbonyl)-N^1-[2-(4-fluorophenyl)-1,1-dimethylethyl]-L-α-glutamine]
[1]
  Forced degradation result: subject to acid and peroxide degradation
[2]
  pKa: 5.3
[2]; aqueous buffer, thermodynamic from solid, S0 (intrinsic solubility of the free acid)
  solubility at 24 h: 4.5 µg/mL (≈ 0.00944 mM)
[3]; A → B, apical pH 6, basolateral pH 7, without verapamil
  Papp A→B: 62.4 ×10⁻⁶ cm/s
[3]; B → A, apical pH 6, basolateral pH 7, without verapamil
  Papp B→A: 18.5 ×10⁻⁶ cm/s
[3]; without verapamil, read-out: Ratio of B→A/A→B
  efflux ratio: 0.3
[4]; plus Verapamil
  Ratio to Propranolol: 0.77
  Ratio of B→A/A→B: 0.3
[4]; without verapamil
  Ratio to Propranolol: 1.00
  Ratio of B→A/A→B: 0.3
[4]; average of values with and without verapamil
  mean ratio to propranolol: 0.88
[4]; versus propranolol
  Permeability classification: low permeability
[5]
  Papp at 20 μg/mL: 1.82 ×10⁻⁶ cm/s
  Permeability classification: high permeability
[5]; in vivo, 20 μg/mL
  Peff × 10^−1 (μm/sec): 1.82 × 10^−1 μm/sec
  Ratio to Metoprolol: 1.26
[6]; 2% Tween/0.5% methylcellulose toxicology vehicle, aqueous with cosolvent or surfactant or cyclodextrin, read-out: Solubility in toxicology vehicle
  solubility: 220 to 470 µg/mL (≈ 0.462 to 0.986 mM)
[6]; water
  resulting pH: around 5.5
[6]; water, pH 5.5, water, read-out: solubility in water
  solubility: < 100 µg/mL
[7]; 100 mg/kg
  bioavailability: ~100%
[7]; Tox suspension, 25 mg/kg
  bioavailability: 29%
[8]; Tox suspension, 25 mg/kg
  bioavailability: ~100%
[8]; capsule containing neat drug
  bioavailability: 65%
[9]; Water, 25° C.
  solubility: 1600 µg/mL (≈ 3.36 mM)
[9]; Water, 50° C.
  solubility: 1800 µg/mL (≈ 3.78 mM)
[9]; organic solvent or mixture, Acetonitrile, 25° C.
  solubility: 43000 µg/mL (≈ 90.2 mM)
[9]; organic solvent or mixture, Acetonitrile, 50° C.
  solubility: > 133000 µg/mL
[9]; organic solvent or mixture, EtAc (ethyl acetate), 25° C.
  solubility: > 109000 µg/mL
[9]; organic solvent or mixture, Ethanol, 25° C.
  solubility: > 137000 µg/mL
[9]; organic solvent or mixture, Heptane, 25° C.
  solubility: 700 µg/mL (≈ 1.47 mM)
[9]; organic solvent or mixture, Isopropyl acetate (IPAc), 25° C.
  solubility: 76100 µg/mL (≈ 160 mM)
[9]; organic solvent or mixture, Isopropyl acetate (IPAc), 50° C.
  solubility: > 123000 µg/mL
[9]; organic solvent or mixture, Isopropyl alcohol (IPA), 25° C.
  solubility: > 122000 µg/mL
[9]; organic solvent or mixture, Toluene, 25° C.
  solubility: 4300 µg/mL (≈ 9.02 mM)
[9]; organic solvent or mixture, Toluene, 50° C.
  solubility: 15600 µg/mL (≈ 32.7 mM)
[10]
  Change of powder XRD pattern or melting point / polymorphic transformation: not observed
[11]; Caco-2, pH 7.4
  Papp A→B: 14.9 ×10⁻⁶ cm/s
  Papp B→A: 37.4 ×10⁻⁶ cm/s
  efflux ratio: 2.36
[11]; A → B
  recovery: 100%
[11]; B → A
  recovery: 156%
[12]; A → B
  Ratio to Metoprolol: 0.25
[12]; B → A
  Ratio to Metoprolol: 0.59
[12]; pH 7.4, versus metoprolol
  Permeability classification: low permeability

## CC(C)(Cc1ccc(F)cc1)NC(=O)[C@H](CCC(=O)O)NC(=O)c1ccc(-c2ccccc2)cc1 [Form B, N^2-(1,1′-biphenyl-4-ylcarbonyl)-N^1-[2-(4-fluorophenyl)-1,1-dimethylethyl]-L-α-glutamine]
[13]
  RH range in which the form is stable (DVS): 0-50 % RH
[14]; 0% RH
  Moisture (%) 1-day: 3.48%
  Moisture (%) 3-day: 3.55%
  Moisture (%) 7-day: 3.57%
  Moisture (%) 20-day: 2.78%
  XRD Polymorph: Pattern B, Form B
[14]; 15% RH
  Moisture (%) 1-day: 3.97%
  Moisture (%) 4-day: 3.99%
  Moisture (%) 7-day: 3.74%
  Moisture (%) 20-day: 3.79%
  XRD Polymorph: Pattern B, Form B
[14]; 31% RH
  Moisture (%) 1-day: 3.61%
  Moisture (%) 4-day: 5.01%
  Moisture (%) 7-day: 3.93%
  Moisture (%) 20-day: 3.79%
  XRD Polymorph: Pattern B, Form B
[14]; 47% RH
  Moisture (%) 1-day: 3.81%
  Moisture (%) 3-day: 3.73%
  Moisture (%) 7-day: 4.00%
  Moisture (%) 20-day: 4.19%
  XRD Polymorph: Pattern B, Form B
[14]; 66% RH
  Moisture (%) 1-day: 5.12%
  Moisture (%) 4-day: 5.28%
  Moisture (%) 7-day: 5.34%
  Moisture (%) 20-day: 5.1%
  XRD Polymorph: Pattern C, Form C
[14]; 84% RH
  Moisture (%) 1-day: 5.55%
  Moisture (%) 3-day: 5.43%
  Moisture (%) 7-day: 5.55%
  Moisture (%) 20-day: 5.71%
  XRD Polymorph: Pattern C, Form C
[14]; 100% RH
  Moisture (%) 1-day: 5.55%
  Moisture (%) 4-day: 8.08%
  Moisture (%) 7-day: 6.14%
  Moisture (%) 20-day: 6.22%
  XRD Polymorph: Pattern C, Form C
[14]; Sample F incubated at room temperature, 20 days, listed as monohydrate
  RH range at which the form is present by XRD: 0-47 % RH
[14]; initial, KF titration
  Moisture (%) T = 0: 3.82%
[15]; 40 C./75% RH Closed, 4 wk
  HPLC Impurity (%): 0.34%
  KF (%): 5.35%
  XRD Polymorph: Form C Pattern C
[15]; 40 C./75% RH Closed, 8 wk
  HPLC Impurity (%): 0.41%
  KF (%): 5.79%
  XRD Polymorph: Form C Pattern C
[15]; 40 C./75% RH Open, 4 wk
  HPLC Impurity (%): 0.36%
  KF (%): 5.34%
  XRD Polymorph: Form C Pattern C
[15]; 40 C./75% RH Open, 8 wk
  HPLC Impurity (%): 0.49%
  KF (%): 5.53%
  XRD Polymorph: Form C Pattern C
[15]; 40° C./75% RH
  Duration of sufficient heat stability: at least 3 months
[15]; Initial, time 0
  HPLC Impurity (%): 0.30%
  KF (%): 3.82%
  XRD Polymorph: Form B Pattern B

## CC(C)(Cc1ccc(F)cc1)NC(=O)[C@H](CCC(=O)O)NC(=O)c1ccc(-c2ccccc2)cc1 [Sample E, N^2-(1,1′-biphenyl-4-ylcarbonyl)-N^1-[2-(4-fluorophenyl)-1,1-dimethylethyl]-L-α-glutamine]
[16]; suspension 100 mg/mL in 2% Tween 80, ambient conditions, about 0.5 hr
  Polymorphic conversion / Polymorph Form after stirring: transformation of pseudo Form A to Form B
[16]; suspension 100 mg/mL in water, overnight (~18 hr), ambient conditions
  Polymorphic conversion / Polymorph Form after stirring: transformation of pseudo Form A to Form B
[17]
  Solubility, 2% Tw80: 330 µg/mL (≈ 0.692 mM)
  pH of 2% Tw80 solubility sample: 5.6
[10]
  Change of powder XRD pattern or melting point / polymorphic transformation: transformed to a lower melting point polymorph form
